Where two headings read alike, the source gives them in different places.
Key:
Assay type in all cases: in vivo
[1] = test system: Lolium multiflorum; assay: Test Example 5: spraying on the soil surface, herbicidal effect from above ground weight; conditions: Compound (I-3) alone, sprayed on the soil surface, seven weeks after spraying
Description: (§1) POA allylphenyl ether (4.1 parts by weight), POE-POP glycol (1 part by weight), POE sorbitan laurate (0.8 parts by weight), glycerin (2.6 parts by weight), dimethylformamide (65.9 parts by weight), N-methylpyrrolidone (5.1 parts by weight), cyclohexanone (15.4 parts by weight), and aromatic hydrocarbons (5.1 parts by weight) were mixed and dissolved to prepare an emulsion. The active ingredient (4 mg) of the composition of the present invention was dissolved in this emulsion (100 μL) to prepare a test emulsion. It should be noted that POA means “polyoxyalkylene”, POE means “polyoxyethylene”, and POP means “polyoxypropylene”.
(§2) For the evaluation of the herbicidal effects, the above ground weights of weeds in the untreated and treated areas were measured for each weed 3 weeks after spraying treatment, and the herbicidal effect (%) was calculated by the following calculation formula.
(§3) Herbicidal effect (%)=[(above ground weight of weeds in untreated area)−(above ground weight of weeds in treated area)/(above ground weight of weeds in untreated area)]×100
(§4) A test emulsion was prepared in the same manner as in Test Example 4.
(§5) A 300 cm^2 pot was filled with soil, and seeds of Triticum aestivum, multidrug-resistant Alopecurus myosuroides, Lolium multiflorum and Avena fatua were sown into the surface layer, and covered with soil to a thickness of 0.5 to 1 cm. The above test emulsion was diluted so that the amount of the active ingredient became a predetermined amount, and sprayed on the soil surface at a spray water volume of 250 L per hectare, followed by growth in an outdoor environment.
(§6) Seven weeks after spraying, the evaluation was carried out in the same manner as in Test Example 4, except that the above ground weights of weeds in the untreated and treated areas were measured for each weed.
(§7) The following grass species were used as grass species to be controlled [scientific names]. • Blackgrass * [Alopecurus myosuroides] • Italian ryegrass [Lolium multiflorum] • Wild oat [Avena fatua]

[2] = test system: multidrug-resistant Alopecurus myosuroides; assay: as above; conditions: Compound (I-3) alone, sprayed on the soil surface, seven weeks after spraying, Alopecurus myosuroides multidrug-resistant strain
Description: as §1, §2, §3, §4, §5, §6, §7

[3] = test system: Avena fatua; assay: as above; conditions: Compound (I-3) alone, sprayed on the soil surface, seven weeks after spraying
Description: as §1, §2, §3, §4, §5, §6, §7

[4] = test system: Ambrosia artemisiifolia; assay: Test Example 1: seeds on filter paper moistened with chemical solution, herbicidal effect visually evaluated; conditions: Ambrosia artemisiifolia, 144 h, visually evaluated 6 days after treatment
Description: As the compound (1), 1-methoxy-3-methyl-6-(1,1-dioxido-8-(trifluoromethyl)thiochroman-5-yl)-7-oxa-3,4-diazabicyclo[4.1.0]hept-4-en-2-one (Compound (I-3)) was used.
The compound (I) or compound (II) was prepared into a 5% emulsion using DMF (containing 1.5% Tween) and diluted with water to a prescribed dosage concentration. Commercially available preparations were dissolved in water and adjusted to a prescribed dosage concentration.
Seeds were soaked in 0.6% sodium hypochlorite for a predetermined time for surface sterilization and washed with water for use (seed disinfection). Seeds of Ambrosia artemisiifolia were used for the test.
Filter paper was placed on a cup (diameter: 10 cm, height: 4 cm) with a lid and moistened with 8 ml of chemical solution, and seeds were sown thereon, and after covering with a lid, grown in a constant temperature room.
The herbicidal effects were visually evaluated, 6 days after the treatment, as the herbicidal effect (%), by comparing with a state of an untreated group using a total of 21 scores of withering index from 0 to 20 (0: mortality rate equivalent to that of the untreated group, 20: mortality rate of 100%).
(§8) In addition, the expected values of the herbicidal effects were calculated from the herbicidal effects in a case where the compound (I) alone was applied and the herbicidal effects in a case where the compound (II) alone was applied by using the Colby's formula (Colby, S. R., Calculating synergistic and antagonistic responses of herbicide combinations, Weeds, 15, pp. 20-22 (1967)).
M indicates an herbicidal effect (%) in the application of the compound (I) alone, N indicates an herbicidal effect (%) in the application of the compound (II) alone, and E indicates an expected value (%) of the herbicidal effect in the combined application of the compound (T) and the compound (TT). When the actual measured value (%) of the herbicidal effect in the combined application of the compound (I) and the compound (II) is greater than the expected value E, it can be regarded that the combined application of the compound (I) and the compound (II) has a synergistic effect.

[5] = test system: Zea mays; assay: Test Example 6: foliar spraying treatment, herbicidal effect from above ground weight (useful plant); conditions: Compound (I-3) alone
Description: as §1, §4
(§9) A 300 cm^2 pot was filled with soil, and seeds of Zea mays and Ipomoea hederacea were sown into the surface layer, and then grown in a greenhouse after being covered lightly with soil. When each plant grew to a plant height of 7 to 9 cm, the above test emulsion was diluted so that the amount of the active ingredient became a predetermined amount, and sprayed on the foliage with a small sprayer at a spray water volume of 250 L per hectare.
Test Examples 6-1 and 6-3 were evaluated in the same manner as in Test Example 4.
The expected values of the herbicidal effects in Test Example 6-2 were calculated using the following Colby's formula (Colby, S. R., Calculating synergistic and antagonistic responses of herbicide combinations, Weeds, 15, pp. 20-22 (1967)).
X indicates an herbicidal effect (%) by applying the compound (1) alone, Y and Z each indicate an herbicidal effect (%) by applying one of the two types of the compounds (II) alone, and E indicates an expected value (%) of the herbicidal effect by applying combinations of the compound (I) and two types of the compounds (II).
When the actual measured value (%) of the herbicidal effect by the combined application of the compound (I) and two types of the compounds (11) is greater than the expected value E, it can be regarded that the combined application of the compound (1) and two types of the compounds (II) has a synergistic effect.
The following plants were used as useful plants [scientific names]. • Corn for animal feed [Zea mays]

[6] = test system: Zea mays; assay: Test Example 4: foliar spraying treatment, herbicidal effect from above ground weight (useful plant); conditions: Compound (I-3) alone, 63 gai/ha, 3 weeks after spraying
Description: as §1
as §9, with “mays, Setaria faberi, Sorghum halepense, Brachiaria platyphylla, Amaranthus palmeri, Senna obtusifolia” for “mays”, “11” for “9”, “cm, it was used for” for “cm,”, “test. The” for “above”
as §2
as §8, with “(1967)). […]” for “(1967)).”

SMILES: COC12OC1(c1ccc(C(F)(F)F)c3c1CCCS3(=O)=O)C=NN(C)C2=O (centres unmarked) [Compound (I-3), 1-methoxy-3-methyl-6-(1,1-dioxido-8-(trifluoromethyl)thiochroman-5-yl)-7-oxa-3,4-diazabicyclo[4.1.0]hept-4-en-2-one]
- Actual measured value of herbicidal effect ([1]; 63 gai/ha): 60%
- Actual measured value of herbicidal effect ([1]; 125 gai/ha): 80%
- Actual measured value of herbicidal effect ([2]; 63 gai/ha): 0%
- Actual measured value of herbicidal effect ([2]; 125 gai/ha): 30%
- Actual measured value of herbicidal effect ([3]; 63 gai/ha): 0%
- Actual measured value of herbicidal effect ([3]; 125 gai/ha): 20%
- pest or weed control at 3.1 ppm ([4]; read-out: Herbicidal effect (%), applied alone, amount of active ingredient 3.1 ppm): 65%
- pest or weed control at 3.1 ppm ([4]; read-out: Herbicidal effect (%), compound applied alone, amount of active ingredient 3.1 ppm): 70%
- Actual measured value of herbicidal effect ([5]; 94 gai/ha): 0%
- Actual measured value of herbicidal effect ([5]; 125 gai/ha): 0%
- Actual measured value of herbicidal effect [6]: 0%

Source: US20240130368A1, “HERBICIDAL COMPOSITION” (Nippon Soda Co., Ltd., priority 2021, published 2024)
